Test: Stability of oxysterols in NPC plasma samples processed with/without BHT at 4° C. or room temperature
Type: physicochemical, human
Description: Treatments include: NPC plasma samples treated with BHT (“BHT”), no BHT (“No BHT”), at 4° C. with BHT (“4 BHT”), at 4° C. without BHT (“4 No BHT”), at room temperature (20-21° C.) with BHT (“RT BHT”), and at room temperature (20-21° C.) without BHT (“RT No BHT”).
Treatments include: NPC plasma samples treated overnight with BHT (“BHT”), no BHT (“No BHT”), at 4° C. with BHT (“4 BHT”), at 4° C. without BHT (“4 No BHT”), at room temperature (20-21° C.) with BHT (“RT BHT”), and at room temperature (20-21° C.) without BHT (“RT No BHT”).
The stability of the oxysterols triol and 7-keto prepared in accordance with the methods of the present disclosure are shown in FIGS. 7A and 7B. Patient's having confirmed NPC disease were used to obtain plasma biological samples. The plasma biological samples were processed as described in Examples 1-4 except that some of the samples were not treated with butylated hydroxytoluene (BHT, a known antioxidant that prevents further oxidation of cholesterol), and either treated at room temperature or at 4° C. with and without BHT.

SMILES | Stability in plasma samples: ability to isolate and quantify
CC(C)CCC[C@@H](C)[C@H]1CC[C@H]2[C@@H]3C[C@@H](O)[C@@]4(O)C[C@@H](O)CC[C@]4(C)[C@H]3CC[C@]12C [triol, cholestane-3β,5α,6β-triol] | without adversely affecting
CC(C)CCC[C@@H](C)[C@H]1CC[C@H]2[C@@H]3C(=O)C=C4C[C@@H](O)CC[C@]4(C)[C@H]3CC[C@]12C [7-keto, 7-ketocholesterol] | without adversely affecting

Source: patent US9012216B2, “Methods of determining efficacy of cyclodextrin therapy” (Washington University, priority 2008, dated 2015)
